IC50 data for 15 compounds are collected here from patent publication US20250163104A1, “MACROCYCLIC IMMUNOMODULATORS” (priority 2021, published 2025).

Where a SMILES comes first, the peptide text is derived from it. Bridges are numbered along the chain shown (N, C = ends). [ ]: non-standard residue; d: D form. The star is where a group is joined. ξ: configuration not given here. Phe(4-COOH) = N[C@@H](Cc1ccc(C(=O)O)cc1)C(=O)O; Bip = N[C@@H](Cc1ccc(-c2ccccc2)cc1)C(=O)O; Phe(3-Me) = Cc1cccc(C[C@H](N)C(=O)O)c1; Val(3-OH) = CC(C)(O)[C@H](N)C(=O)O; 3Pal = N[C@@H](Cc1cccnc1)C(=O)O; 4Pal = N[C@@H](Cc1ccncc1)C(=O)O; Cha = N[C@@H](CC1CCCCC1)C(=O)O; Cit = NC(=O)NCCC[C@H](N)C(=O)O; Ile(3ξ) = CCC(C)[C@H](N)C(=O)O; dCha = N[C@H](CC1CCCCC1)C(=O)O; Thr(3ξ) = CC(O)[C@H](N)C(=O)O; NMeNle = CCCC[C@H](NC)C(=O)O; ξIle = CC[C@H](C)C(N)C(=O)O; dNle = CCCC[C@@H](N)C(=O)O; Carboxymethyl = O=C(O)C*; Nle = CCCC[C@H](N)C(=O)O; Orn = NCCC[C@H](N)C(=O)O; Pra = C#CC[C@H](N)C(=O)O; Dab = NCC[C@H](N)C(=O)O; Dap = NC[C@H](N)C(=O)O; Propargyl = C#CC*

The target of the test is T1, human PD-1 / PD-L1-Ig binding on Jurkat cell line over-expressing human PD-1 (Jurkat-PD-1) (Homo sapiens, UniProt Q15116).
T1 construct: expressed in transfected cells; host or cells: Jurkat
As to the kind of experiment: Jurkat-PD-1 Cell Binding High-Content Screening Assay (CBA). In kind it is cell-based. Conditions: Jurkat-PD-1 cells, PE-labeled PD-L1-Ig 20 nM final; read-out: Jurkat HPD1_PDL1 IC50. An outline of the steps: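 PE-PD-L1-Ig 20 nM final; cells in DMEM/10% FCS; cpd pre-incubation 2 h, 37° C; ligand 1 h; PFA fix + Hoechst 33342; high-content imaging read-out.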

T1 sequence (Q15116 25-288): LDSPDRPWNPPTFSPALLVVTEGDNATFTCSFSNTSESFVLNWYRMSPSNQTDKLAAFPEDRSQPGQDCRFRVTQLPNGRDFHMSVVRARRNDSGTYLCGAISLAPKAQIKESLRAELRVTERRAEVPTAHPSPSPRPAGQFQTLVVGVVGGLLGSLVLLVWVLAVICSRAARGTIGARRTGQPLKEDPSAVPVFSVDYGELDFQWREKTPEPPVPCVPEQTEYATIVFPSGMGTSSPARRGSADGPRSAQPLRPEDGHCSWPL

A word on the IC50: it is the concentration that gives 50% inhibition. Regarding `CCCC[C@H]1C(=O)N[C@@H](Cc2ccc(C(=O)O)cc2)C(=O)N[C@@H](CC(=O)O)C(=O)N[C@@H](Cc2c[nH]c3ccccc23)C(=O)N[C@@H](C(C)C)C(=O)N[C@@H](Cc2ccc(-c3ccccc3)cc2)C(=O)N[C@@H](C(C)C)C(=O)N[C@@H](CCCN)C(=O)N[C@H](CC(C)C)C(=O)N[C@@H](CCN)C(=O)N[C@@H](CC2CCCCC2)C(=O)N[C@@H](C(C)C)C(=O)N[C@@H](C(C)O)C(=O)N[C@H](C(=O)N[C@@H](CC(N)=O)C(N)=O)CSCC(=O)N1C` (stereo partly drawn) [Compound 2551] ({CH2CO}-[NMeNle][Phe(4-COOH)]DWV[Bip]V[Orn][dL][Dab][Cha]V[Thr(3ξ)]CN-NH2; thioether N-14), the IC50 was 92.5 nM.

Take `CC(C)C[C@@H]1NC(=O)[C@H](CCN)NC(=O)[C@@H](CC(C)C)NC(=O)[C@H](CCCN)NC(=O)[C@H](CCCNC(N)=O)NC(=O)[C@H](Cc2ccc(-c3ccccc3)cc2)NC(=O)[C@H](C(C)C)NC(=O)[C@H](Cc2c[nH]c3ccccc23)NC(=O)[C@H](CC(=O)O)NC(=O)[C@H](Cc2ccc(O)cc2)NC(=O)[C@H](CC(N)=O)NC(=O)CSC[C@@H](C(=O)N[C@@H](C)C(N)=O)NC(=O)[C@H]([C@@H](C)O)NC(=O)[C@H](C(C)C)NC1=O` [Compound 1017] ({CH2CO}-NYDWV[Bip][Cit][Orn][dL][Dab]LVTCA-NH2; thioether N-14): the half-maximal inhibitory concentration (IC50) was determined as 20.3 nM.

In the case of `Cc1cccc(C[C@@H]2NC(=O)[C@H](CC(=O)O)NC(=O)[C@H](Cc3ccc(OCC(=O)O)cc3)NC(=O)[C@H](CN)NC(=O)CSC[C@@H](C(=O)N[C@@H](CCN)C(N)=O)NC(=O)[C@H](CCCN)NC(=O)[C@H](C(C)C)NC(=O)[C@H](CC3CCCCC3)NC(=O)[C@H](Cc3cccnc3)NC(=O)[C@@H](CC(C)C)NC(=O)[C@H](CCCN)NC(=O)[C@H](Cc3ccc(O)cc3)NC(=O)[C@H](Cc3ccc(-c4ccccc4)cc3)NC(=O)[C@H](Cc3ccc(O)cc3)NC2=O)c1` [Compound 2037] ({CH2CO}-[Dap]Y(Carboxymethyl)D[Phe(3-Me)]Y[Bip]Y[Orn][dL][3Pal][Cha]V[Orn]C[Dab]-NH2; thioether N-14), the concentration for half-maximal inhibition (IC50) stood at 89.7 nM.

As to `C#CC[C@H](NC(=O)CNC(=O)[C@@H]1CSCC(=O)N[C@@H](CCN)C(=O)N[C@@H](Cc2ccc(OCC(=O)O)cc2)C(=O)N[C@@H](CC(=O)O)C(=O)N[C@@H](Cc2c[nH]c3ccccc23)C(=O)N[C@@H](C(C)C)C(=O)N[C@@H](Cc2ccc(-c3ccccc3)cc2)C(=O)N[C@@H](C(C)CC)C(=O)N[C@@H](CCCN)C(=O)N[C@H](CC(C)C)C(=O)N[C@@H](CCN)C(=O)N[C@@H](CC2CCCCC2)C(=O)N[C@@H](C(C)(C)O)C(=O)N[C@@H](CO)C(=O)N1)C(=O)O` (stereo partly drawn) [Compound 2319] ({CH2CO}-[Dab]Y(Carboxymethyl)DWV[Bip][Ile(3ξ)][Orn][dL][Dab][Cha][Val(3-OH)]SCG[Pra]-OH; thioether N-14), the concentration for half-maximal inhibition (IC50) was determined as 24.3 nM.

For `CC(C)[C@@H]1NC(=O)[C@H](Cc2c[nH]c3ccccc23)NC(=O)[C@H](CC(=O)O)NC(=O)[C@H](Cc2ccncc2)NC(=O)[C@H](CN)NC(=O)CSC[C@@H](C(=O)N[C@@H](C)C(N)=O)NC(=O)[C@H]([C@@H](C)O)NC(=O)[C@H](C(C)C)NC(=O)[C@H](CC2CCCCC2)NC(=O)[C@H](CCN)NC(=O)[C@@H](CC2CCCCC2)NC(=O)[C@H](CCCN)NC(=O)[C@H](CCC(=O)O)NC(=O)[C@H](Cc2ccc(-c3ccccc3)cc2)NC1=O` [Compound 1440] ({CH2CO}-[Dap][4Pal]DWV[Bip]E[Orn][dCha][Dab][Cha]VTCA-NH2; thioether N-14), the half-maximal inhibitory concentration (IC50) was found to be 86.8 nM.

For the compound `CC[C@H](C)[C@@H]1NC(=O)[C@H](Cc2ccc(-c3ccccc3)cc2)NC(=O)[C@H](C(C)C)NC(=O)[C@H](Cc2c[nH]c3ccccc23)NC(=O)[C@H](CC(=O)O)NC(=O)[C@H](Cc2ccc(O)cc2)NC(=O)[C@H](CC(N)=O)NC(=O)CSC[C@@H](C(=O)NCC(N)=O)NC(=O)[C@H]([C@@H](C)O)NC(=O)[C@H](C(C)C)NC(=O)[C@H](CC(C)C)NC(=O)[C@H](CCN)NC(=O)[C@@H](CC(C)C)NC(=O)[C@H](CCN)NC1=O` [Compound 1126] ({CH2CO}-NYDWV[Bip]I[Dab][dL][Dab]LVTCG-NH2; thioether N-14), the half-inhibitory concentration (IC50) is 23.9 nM.

Take `Cc1cccc(C[C@@H]2NC(=O)[C@H](CC(=O)O)NC(=O)[C@H](Cc3ccc(OCC(=O)O)cc3)NC(=O)[C@H](Cc3ccc(OCC(=O)O)cc3)NC(=O)CSC[C@@H](C(=O)NCC(N)=O)NC(=O)[C@H](CO)NC(=O)[C@H](C(C)C)NC(=O)[C@H](CC(C)C)NC(=O)[C@H](CCN)NC(=O)[C@@H](CC(C)C)NC(=O)[C@H](CCCN)NC(=O)[C@H](C(C)C)NC(=O)[C@H](Cc3ccc(-c4ccccc4)cc3)NC(=O)[C@H](CC(C)C)NC2=O)c1` [Compound 1262] ({CH2CO}-Y(Carboxymethyl)Y(Carboxymethyl)D[Phe(3-Me)]L[Bip]V[Orn][dL][Dab]LVSCG-NH2; thioether N-14): the IC50 is 4.6 nM.

For the compound `CCCC[C@@H]1NC(=O)[C@H](CCN)NC(=O)[C@@H](CC(C)C)NC(=O)[C@H](CCCN)NC(=O)[C@H](C(C)C)NC(=O)[C@H](Cc2ccc(-c3ccccc3)cc2)NC(=O)[C@H](CC(C)C)NC(=O)[C@H](Cc2c[nH]c3ccccc23)NC(=O)[C@H](CC(=O)O)NC(=O)[C@H](Cc2ccc(OCC(=O)O)cc2)NC(=O)[C@H](Cc2ccc(OCC(=O)O)cc2)NC(=O)CSC[C@@H](C(=O)NCC(N)=O)NC(=O)[C@H](CO)NC(=O)[C@H](C(C)C)NC1=O` [Compound 1409] ({CH2CO}-Y(Carboxymethyl)Y(Carboxymethyl)DWL[Bip]V[Orn][dL][Dab][Nle]VSCG-NH2; thioether N-14), the concentration for half-maximal inhibition (IC50) worked out at 16.8 nM.

`C#CCOc1ccc(C[C@@H]2NC(=O)[C@H](Cc3cccc(C)c3)NC(=O)[C@H](CC(=O)O)NC(=O)[C@H](Cc3ccc(C(=O)O)cc3)NC(=O)[C@H](CCCC)NC(=O)CSC[C@@H](C(=O)N[C@@H](CCN)C(N)=O)NC(=O)[C@H](CCC(=O)O)NC(=O)[C@H](C(C)C)NC(=O)[C@H](CC3CCCCC3)NC(=O)[C@H](CCN)NC(=O)[C@@H](CC(C)C)NC(=O)[C@H](CCCN)NC(=O)[C@H](Cc3ccc(C(=O)O)cc3)NC(=O)[C@H](Cc3ccc(-c4ccccc4)cc3)NC2=O)cc1` [Compound 1842] ({CH2CO}-[Nle][Phe(4-COOH)]D[Phe(3-Me)]Y(Propargyl)[Bip][Phe(4-COOH)][Orn][dL][Dab][Cha]VEC[Dab]-NH2; thioether N-14): the IC50 was determined as 1.2 nM.

Turning to `CCCC[C@H]1NC(=O)[C@H](CCCN)NC(=O)[C@H](C(C)C)NC(=O)[C@H](Cc2ccc(-c3ccccc3)cc2)NC(=O)[C@H](C(C)C)NC(=O)[C@H](Cc2c[nH]c3ccccc23)NC(=O)[C@H](CC(=O)O)NC(=O)[C@H](Cc2ccc(OCC(=O)O)cc2)NC(=O)[C@H](CN)NC(=O)CSC[C@@H](C(=O)N[C@@H](C)C(N)=O)NC(=O)[C@H]([C@@H](C)O)NC(=O)[C@H](C(C)C)NC(=O)[C@H](CC2CCCCC2)NC(=O)[C@H](CCN)NC1=O` [Compound 1692], the 50% inhibitory concentration (IC50) amounted to 10.7 nM.

For the compound `CCCC[C@H]1NC(=O)[C@H](CCCN)NC(=O)[C@H](CCCNC(N)=O)NC(=O)[C@H](Cc2ccc(-c3ccccc3)cc2)NC(=O)[C@H](C(C)C)NC(=O)[C@H](Cc2c[nH]c3ccccc23)NC(=O)[C@H](CC(=O)O)NC(=O)[C@H](Cc2ccc(O)cc2)NC(=O)[C@H](CC(N)=O)NC(=O)CSC[C@@H](C(=O)N[C@@H](C)C(N)=O)NC(=O)[C@H]([C@@H](C)O)NC(=O)[C@H](C(C)C)NC(=O)[C@H](CC2CCCCC2)NC(=O)[C@H](CCN)NC1=O` [Compound 1704] ({CH2CO}-NYDWV[Bip][Cit][Orn][dNle][Dab][Cha]VTCA-NH2; thioether N-14), the IC50 is 35.8 nM.

In the case of `CCCC[C@@H]1NC(=O)[C@H](CC(N)=O)NC(=O)[C@@H](CC(C)C)NC(=O)[C@H](CCCN)NC(=O)[C@H](C(C)C)NC(=O)[C@H](Cc2ccc(-c3ccccc3)cc2)NC(=O)[C@H](CC(C)C)NC(=O)[C@H](Cc2c[nH]c3ccccc23)NC(=O)[C@H](CC(=O)O)NC(=O)[C@H](Cc2ccncc2)NC(=O)[C@H](Cc2ccc(OCC(=O)O)cc2)NC(=O)CSC[C@@H](C(=O)NCC(N)=O)NC(=O)[C@H](CO)NC(=O)[C@H](C(C)C)NC1=O` [Compound 1343] ({CH2CO}-Y(Carboxymethyl)[4Pal]DWL[Bip]V[Orn][dL]N[Nle]VSCG-NH2; thioether N-14), the IC50 came out at 29.9 nM.

In the case of `CC(C)C[C@H]1NC(=O)[C@H](CCCN)NC(=O)[C@H](CCC(=O)O)NC(=O)[C@H](Cc2ccc(-c3ccccc3)cc2)NC(=O)[C@H](C(C)C)NC(=O)[C@H](Cc2c[nH]c3ccccc23)NC(=O)[C@H](CC(=O)O)NC(=O)[C@H](Cc2ccc(OCC(=O)O)cc2)NC(=O)[C@H](CN)NC(=O)CSC[C@@H](C(=O)N[C@@H](C)C(N)=O)NC(=O)[C@H]([C@@H](C)O)NC(=O)[C@H](C(C)C)NC(=O)[C@H](Cc2ccccc2)NC(=O)[C@H](CCN)NC1=O` [Compound 1666] ({CH2CO}-[Dap]Y(Carboxymethyl)DWV[Bip]E[Orn][dL][Dab]FVTCA-NH2; thioether N-14), the half-maximal inhibitory concentration (IC50) is 17.3 nM.

Turning to `CC(C)C[C@@H]1NC(=O)[C@H](CCCNC(=N)N)NC(=O)[C@@H](CC(C)C)NC(=O)[C@H](CCCCN)NC(=O)[C@H](CCCNC(=N)N)NC(=O)[C@H](Cc2ccc(-c3ccccc3)cc2)NC(=O)[C@H](C(C)C)NC(=O)[C@H](Cc2c[nH]c3ccccc23)NC(=O)[C@H](CC(=O)O)NC(=O)[C@H](Cc2ccc(O)cc2)NC(=O)[C@H](CC(N)=O)NC(=O)CSC[C@@H](C(=O)N[C@@H](C)C(N)=O)NC(=O)[C@H]([C@@H](C)O)NC(=O)[C@H](C(C)C)NC1=O` [Compound 1007] ({CH2CO}-NYDWV[Bip]RK[dL]RLVTCA-NH2; thioether N-14), the IC50 turned out to be 45.3 nM.

Turning to `CC[C@H](C)C1NC(=O)[C@H](Cc2ccc(-c3ccccc3)cc2)NC(=O)[C@H](C(C)C)NC(=O)[C@H](Cc2c[nH]c3ccccc23)NC(=O)[C@H](CC(N)=O)NC(=O)[C@H](Cc2ccc(O)cc2)NC(=O)[C@H](CN)NC(=O)CSC[C@@H](C(=O)N[C@@H](C)C(N)=O)NC(=O)[C@H]([C@@H](C)O)NC(=O)[C@H](C(C)C)NC(=O)[C@H](CC(C)C)NC(=O)[C@H](CCN)NC(=O)[C@@H](CC(C)C)NC(=O)[C@H](CCN)NC1=O` (stereo partly drawn) [Compound 1090] ({CH2CO}-[Dap]YNWV[Bip][ξIle][Dab][dL][Dab]LVTCA-NH2; thioether N-14), the IC50 came out at 28 nM.
